From ChEMBL document CHEMBL5614370, “Data-oriented protein kinase drug discovery” (Eur J Med Chem, 2024)

Key:
[1] = biological target: Hepatocyte growth factor receptor (Homo sapiens, UniProt P08581); experiment: Inhibition of HGF receptor (unknown origin)
[2] = biological target: Phosphatidylinositol 4,5-bisphosphate 3-kinase catalytic subunit alpha isoform (Homo sapiens, UniProt P42336); experiment: Inhibition of PI3Kalpha (unknown origin)
[3] = biological target: Macrophage colony-stimulating factor 1 receptor (Homo sapiens, UniProt P07333); experiment: Inhibition of CSF1R (unknown origin)
Chain of Macrophage colony-stimulating factor 1 receptor (P07333 whole entry): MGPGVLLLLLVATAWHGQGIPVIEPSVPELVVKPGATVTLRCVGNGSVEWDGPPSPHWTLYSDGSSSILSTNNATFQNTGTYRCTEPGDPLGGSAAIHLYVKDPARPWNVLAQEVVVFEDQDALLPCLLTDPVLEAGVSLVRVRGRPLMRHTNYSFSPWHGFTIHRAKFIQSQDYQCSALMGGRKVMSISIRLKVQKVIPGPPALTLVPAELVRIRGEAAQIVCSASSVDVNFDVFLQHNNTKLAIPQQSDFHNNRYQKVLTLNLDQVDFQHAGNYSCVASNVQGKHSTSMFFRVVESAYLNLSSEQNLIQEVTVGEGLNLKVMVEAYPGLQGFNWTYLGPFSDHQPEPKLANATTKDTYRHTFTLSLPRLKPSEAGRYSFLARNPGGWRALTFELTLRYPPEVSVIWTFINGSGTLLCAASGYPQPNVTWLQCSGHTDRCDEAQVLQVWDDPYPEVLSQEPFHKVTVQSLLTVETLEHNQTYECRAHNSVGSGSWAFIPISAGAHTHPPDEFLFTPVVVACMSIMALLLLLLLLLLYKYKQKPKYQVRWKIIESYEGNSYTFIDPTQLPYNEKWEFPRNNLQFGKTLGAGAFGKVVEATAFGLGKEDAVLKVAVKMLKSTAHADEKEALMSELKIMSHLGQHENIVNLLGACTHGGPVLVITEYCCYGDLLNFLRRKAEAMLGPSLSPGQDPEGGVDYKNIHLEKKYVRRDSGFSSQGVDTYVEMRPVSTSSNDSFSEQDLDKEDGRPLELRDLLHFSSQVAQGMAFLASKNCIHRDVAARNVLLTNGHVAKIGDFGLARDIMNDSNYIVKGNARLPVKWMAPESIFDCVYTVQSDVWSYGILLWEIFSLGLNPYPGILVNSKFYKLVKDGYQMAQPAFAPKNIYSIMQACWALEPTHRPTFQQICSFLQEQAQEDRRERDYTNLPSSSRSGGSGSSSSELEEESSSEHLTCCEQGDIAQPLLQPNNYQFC

Chain of Phosphatidylinositol 4,5-bisphosphate 3-kinase catalytic subunit alpha isoform (P42336 whole entry, canonical isoform): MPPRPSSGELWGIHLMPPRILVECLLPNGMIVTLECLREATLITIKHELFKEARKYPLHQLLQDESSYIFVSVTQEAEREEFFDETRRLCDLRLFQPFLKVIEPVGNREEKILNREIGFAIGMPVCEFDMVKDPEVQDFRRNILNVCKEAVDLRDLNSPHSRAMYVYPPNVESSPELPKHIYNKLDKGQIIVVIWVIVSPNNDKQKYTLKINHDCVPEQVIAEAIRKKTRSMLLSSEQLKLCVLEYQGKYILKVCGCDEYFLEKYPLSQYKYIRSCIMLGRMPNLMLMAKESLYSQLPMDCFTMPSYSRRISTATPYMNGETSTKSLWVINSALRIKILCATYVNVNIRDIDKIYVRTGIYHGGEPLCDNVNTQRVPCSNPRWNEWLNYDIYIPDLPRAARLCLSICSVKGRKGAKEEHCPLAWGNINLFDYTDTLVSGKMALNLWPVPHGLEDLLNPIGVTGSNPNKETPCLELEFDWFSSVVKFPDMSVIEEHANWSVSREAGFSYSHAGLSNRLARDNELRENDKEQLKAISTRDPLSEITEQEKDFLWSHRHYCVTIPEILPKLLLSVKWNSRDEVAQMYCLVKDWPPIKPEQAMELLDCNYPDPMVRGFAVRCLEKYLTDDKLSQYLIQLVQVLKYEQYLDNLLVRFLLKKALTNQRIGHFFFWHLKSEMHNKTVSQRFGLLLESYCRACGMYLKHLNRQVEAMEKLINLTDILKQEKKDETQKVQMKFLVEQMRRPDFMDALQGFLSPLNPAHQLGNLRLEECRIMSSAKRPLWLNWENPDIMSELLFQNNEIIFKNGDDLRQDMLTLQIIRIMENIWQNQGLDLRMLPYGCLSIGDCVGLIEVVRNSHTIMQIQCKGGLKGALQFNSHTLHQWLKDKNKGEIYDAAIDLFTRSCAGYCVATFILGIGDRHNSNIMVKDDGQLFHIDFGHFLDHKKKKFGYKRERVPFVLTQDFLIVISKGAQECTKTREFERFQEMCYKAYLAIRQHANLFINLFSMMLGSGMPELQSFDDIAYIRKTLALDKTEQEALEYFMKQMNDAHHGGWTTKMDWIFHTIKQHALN
Chain of Hepatocyte growth factor receptor (P08581 whole entry, canonical isoform): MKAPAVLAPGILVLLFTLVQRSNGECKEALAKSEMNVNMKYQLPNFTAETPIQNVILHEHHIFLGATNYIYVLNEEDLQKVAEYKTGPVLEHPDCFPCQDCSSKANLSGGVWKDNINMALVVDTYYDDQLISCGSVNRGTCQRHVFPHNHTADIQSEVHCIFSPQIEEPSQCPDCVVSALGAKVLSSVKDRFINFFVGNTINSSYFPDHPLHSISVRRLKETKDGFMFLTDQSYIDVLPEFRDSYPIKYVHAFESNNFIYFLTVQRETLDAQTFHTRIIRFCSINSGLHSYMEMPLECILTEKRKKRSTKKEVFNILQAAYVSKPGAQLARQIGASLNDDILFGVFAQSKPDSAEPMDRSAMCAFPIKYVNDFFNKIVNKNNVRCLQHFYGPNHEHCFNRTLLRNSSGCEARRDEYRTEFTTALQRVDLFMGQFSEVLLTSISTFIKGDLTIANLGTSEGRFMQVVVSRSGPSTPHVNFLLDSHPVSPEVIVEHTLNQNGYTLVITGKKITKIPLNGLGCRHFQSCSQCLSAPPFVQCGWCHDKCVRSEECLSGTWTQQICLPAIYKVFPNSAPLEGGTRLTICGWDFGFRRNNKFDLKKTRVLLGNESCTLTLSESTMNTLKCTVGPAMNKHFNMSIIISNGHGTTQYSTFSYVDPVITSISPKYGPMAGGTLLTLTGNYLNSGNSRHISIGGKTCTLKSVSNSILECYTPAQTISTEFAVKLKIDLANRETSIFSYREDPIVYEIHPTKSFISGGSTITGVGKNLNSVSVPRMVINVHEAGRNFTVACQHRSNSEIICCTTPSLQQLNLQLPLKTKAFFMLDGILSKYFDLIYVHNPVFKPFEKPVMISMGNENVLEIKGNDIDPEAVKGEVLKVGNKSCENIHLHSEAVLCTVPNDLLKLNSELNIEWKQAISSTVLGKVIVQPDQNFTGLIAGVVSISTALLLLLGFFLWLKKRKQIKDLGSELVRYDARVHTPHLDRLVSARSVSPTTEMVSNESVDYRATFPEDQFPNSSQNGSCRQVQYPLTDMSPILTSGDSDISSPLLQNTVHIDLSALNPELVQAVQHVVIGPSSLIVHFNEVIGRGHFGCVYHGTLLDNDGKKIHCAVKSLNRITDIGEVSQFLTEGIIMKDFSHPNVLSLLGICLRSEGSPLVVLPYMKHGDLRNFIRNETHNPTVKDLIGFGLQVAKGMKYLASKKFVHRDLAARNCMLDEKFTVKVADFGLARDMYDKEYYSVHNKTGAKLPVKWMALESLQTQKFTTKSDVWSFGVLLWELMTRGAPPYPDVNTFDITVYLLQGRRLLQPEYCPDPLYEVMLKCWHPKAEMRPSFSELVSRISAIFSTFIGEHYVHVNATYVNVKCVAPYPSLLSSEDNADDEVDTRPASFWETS

IC50 [2]	SMILES	also measured
	C1=CN(c2ccccc2)CC(CNc2ccc(Oc3ccncc3)cc2)=C1	IC50 [1]: 8.91 nM
1.91 nM	c1n[nH]c(-c2nc3c(s2)CCOc2cc(C4CNC4)ccc2-3)n1	
	C1=C(c2cc(C3CNCNC3)ccc2NCc2ncc[nH]2)CCCC1	IC50 [3]: 2.51 nM
0.269 nM	c1n[nH]c(-c2nc3c(s2)CCOc2cc(-c4cn[nH]c4)ccc2-3)n1	
